Measured values from patent US8283373B2, “Inhibitors of cytosolic phospholipase A2” (Pfizer Inc., priority 2005, dated 2012).
“Also recorded” adds a separate entry of the source.

Experiments:
[1] = tested on: primary dopaminergic neurons; assay: MPP+ exposure in dopaminergic neurons; assay type: cell-based, rat; conditions: 10 μM MPP+ 60 minutes, control 100, MPP+ alone 56.6
Procedure: Primary dopaminergic neurons were isolated from E15 rat embryos as described in Pong K., et al., (1997) J. Neurochem. 69 986-994. Briefly, the ventral mesencephalon was isolated and tissue was pooled in ice-cold phosphate buffer saline (PBS) without Ca^2+ and Mg^2+. The tissue was transferred to an enzymatic dissociation media containing 20 IU/ml papain in Earle's balanced salt solution (Worthington Biochemical, Freehold, N.J.) and incubated for 30 minutes at 37° C. After enzymatic dissociation, the papain solution was aspirated and the tissue mechanically triturated with a fire-polished Pasteur pipette in complete media [Neurobasal Medium with B-27 supplement (Gibco, Grand Island, N.Y.), penicillin/streptomycin, aphidicolin, glutamate] containing 2,000 IU/ml DNase and 10 mg/ml ovomucoid protease inhibitor. Single-cell suspensions in complete media were plated on pre-coated poly-L-ornithine/laminin 24-well plates (Becton-Dickinson, Bedford, Mass.) at a density of 5.0×10^5 cells/well. Cells were maintained for one week prior to experimentation.
Cultures were exposed to 10 μM MPP^+ for 60 minutes. After the exposure, fresh media was exchanged and fresh compound was added. Dopaminergic neuron viability was determined 24 hours later by measuring ^3H-dopamine uptake as described in Pong et al., 1997, supra.

[2] = tested on: primary cerebellar granule neurons; assay: Oxygen-glucose deprivation (OGD) in cultured cerebellar granule neurons; assay type: cell-based, rat; conditions: for percent cell death (lactate dehydrogenase release), Avg.: OGD 2 hours, control 14, OGD 51
Procedure: Primary cerebellar granule neurons were isolated from P5-8 rat pups. Briefly, cerebelli were collected and pooled in ice-cold phosphate buffer saline (PBS) without Ca^2+ and Mg^2+. The tissue was finely chopped and transferred to an enzymatic dissociation media containing 20 IU/ml papain in Earle's balanced salt solution (Worthington Biochemical, Freehold, N.J.) and incubated for 30 minutes at 37° C. After enzymatic dissociation, the papain solution was aspirated and the tissue mechanically triturated with a fire-polished Pasteur pipette in complete media [Neurobasal Medium with B-27 supplement (Gibco, Grand Island, N.Y.), penicillin/streptomycin, aphidicolin, glutamate, potassium chloride] containing 2,000 IU/ml DNase and 10 mg/ml ovomucoid protease inhibitor. Single-cell suspensions in complete media were plated on pre-coated poly-L-ornithine/laminin 24-well plates (Becton-Dickinson, Bedford, Mass.) at a density of
5.0×10^5 cells/well. Cells were maintained for two weeks prior to experimentation.
Cultures were treated with Compound A at various concentrations, 60 minutes before OGD. Media was removed and replaced with deoxygenated buffer in an anaerobic chamber (80% nitrogen, 10% hydrogen, 10% carbon dioxide gas mixture). Fresh Compound A, Example 34 or Example 41 was added to the cultures and maintained in the anaerobic chamber for 2 hours. At the end of the incubation, fresh media was exchanged and fresh Compound A was added. Cultures were maintained for an additional 24 hours in a normoxic incubator. Cell death was determined by measuring lactate dehydrogenase release into the media 24 hours later (Roche Biochemicals). In the table below, values are shown for the control, OGD, various concentrations of Compound A, and MK801, a NMDA receptor antagonist, which is a positive control.

[3] = tested on: collagen-induced arthritis; assay: Collagen-induced arthritis (CIA) model; assay type: in vivo, mouse
Procedure: The compound of Example 10 was tested in the mouse CIA model, which has many immunologic and pathologic similarities to human rheumatoid arthritis (See Trentham, D. E., et al., supra). Arthritis was induced in DBA/1LacJ mice by intradermal injection of an emulsion of bovine type II collagen and CFA followed by a boost with an intradermal injection of bovine type II collagen emulsified in incomplete Freund's Adjuvant 21 days after the initial immunization. […] At that point animals were randomly assigned to treatment groups and administered the compound of Example 10 (100 mg/kg) PO BID for 28 days. Control groups received celecoxib, vehicle alone or were left untreated. All animals were scored daily in a blinded fashion for visual signs of disease symptoms.
The mean scores of the group treated with the compound of Example 10 were compared to the vehicle-control group values using the Student's t-test.
After completion of the experiments, paws were processed for histology. Two board certified veterinary pathologist evaluated the slides in a blinded fashion. Each paw was assigned a numerical score for both arthritis severity and the general number of joints affected.

[4] = tested on: OVA-induced pulmonary inflammation; assay: Rat antigen induced pulmonary inflammation model; assay type: in vivo
Procedure: The efficacy of the compound of Example 10 was evaluated in a Brown Norway rat model in which ovalbumin (OVA)-sensitized animals were challenged via the airways with an aerosol of ovalbumin (OVA) on days 1 and 2. OVA sensitized rats were challenged via aerosol on day 1 and day 2. The compound of Example 10 was administered at 30 mg/kg PO BID 1 hour prior to challenge and 10 hours after challenge over the 2 day challenge period. Dexamethasone was administered at 3 mg/kg IP 1 hour prior to challenge on day 1 and day 2. Animals were sacrificed on day 3 and bronchoalveolar cavities ravaged for analysis of cellular influx.

serum thromboxane B2 = assay: Thromboxane B2 levels in the ApoE KO mouse model; assay type: in vivo; conditions: ApoE KO mice, 3.3 mg/g chow for two days; vehicle 76.1±17.3
Procedure: Blood was collected through the retro-orbital siunus and left to coagulate at 37° C. for one hour. Serum was then isolated and assayed for thromboxane B2 by ELISA.
In a separate experiment, ApoE KO mice were dosed with vehicle or the compound of Example 25 at 10 mg/kg by oral gavage. Blood was collected through the retro-orbital siunus and left to coagulate at 37° C. for one hour. Serum was then isolated and assayed for thromboxane B2 by ELISA.

SMILES	dopaminergic neuron viability (3H-dopamine uptake), Avg. ([1]; 0.3 μM)	dopaminergic neuron viability (3H-dopamine uptake), Avg. ([1]; 1 μM)	dopaminergic neuron viability (3H-dopamine uptake), Avg. ([1]; 3 μM)	dopaminergic neuron viability (3H-dopamine uptake), Avg. ([1]; 10 μM)	protection of cultured neurons from OGD-induced cell death [2]	percent cell death (lactate dehydrogenase release), Avg. ([2]; 0.1 μM) [%]	percent cell death (lactate dehydrogenase release), Avg. ([2]; 0.3 μM) [%]	percent cell death (lactate dehydrogenase release), Avg. ([2]; 1 μM) [%]	percent cell death (lactate dehydrogenase release), Avg. ([2]; 3 μM) [%]	group mean severity scores (paw histology) ([3]; 100 mg/kg BID)	percentage of unaffected (grade 0) paws (histology) ([3]; 100 mg/kg BID)	number of animals without disease symptoms ([3]; 100 mg/kg PO BID)	disease severity scores vs vehicle control ([3]; 100 mg/kg PO BID for 28 days, semi-therapeutic, from day 10)	average severity grade (histology), pathologist 1 ([3]; 100 mg/kg, vehicle 2.1)	average severity grade (histology), pathologist 2 ([3]; 100 mg/kg, vehicle 3.0)	influx of lymphocytes or neutrophils ([4]; 30 mg/kg PO BID)	total numbers of inflammatory cells within the BALF ([4]; 30 mg/kg PO BID)	Bronchoalveolar lavage fluid (BALF) eosinophil influx ([4]; 30 mg/kg PO BID over 2 day challenge, 8 out of 8 independent studies)	serum Thromboxane concentration (serum thromboxane B2) [ng/mL]
Cc1cccc(C)c1CS(=O)(=O)NCCc1c(CCCc2ccc(C(=O)O)cc2)c2cc(Cl)ccc2n1C(c1ccccc1)c1ccccc1 [Compound A, 4-{3-[1-benzhydryl-5-chloro-2-(2-{[(2,6-dimethylbenzyl)sulfonyl]amino}ethyl)-1H-indol-3-yl]propyl}benzoic acid]	76.9	83.4	78.8	81.1	effective in protecting cultured neurons from OGD-induced cell death	38	31	27	20	–	–	–	–	–	–	–	–	–	–
O=C(O)c1ccc(CCCc2c(CCNS(=O)(=O)Cc3ccccc3C(F)(F)F)n(C(c3ccccc3)c3ccccc3)c3ccc(Cl)cc23)cc1 [Example 10, 4-(3-{5-chloro-1-(diphenylmethyl)-2-[2-({[2-(trifluoromethyl)benzyl]sulfonyl}amino)ethyl]-1H-indol-3-yl}propyl)benzoic acid]	–	–	–	–	–	–	–	–	–	lowest group mean severity scores	highest percentage of unaffected (grade 0) paws	greatest	statistically significant decrease; also recorded: significant reduction of disease	0.9	2.1	no significant effect	statistically significantly attenuated	statistically significantly inhibited	1.4 ± 0.7
